# Test results published in patent publication US10167326B2, “Alpha-fetoprotein “ring and tail” peptides” (ALBANY MEDICAL COLLEGE, priority 2010, dated 2019).
# Entries after “also recorded” stand apart in the source; their conditions may differ. Non-standard residues stand in square brackets, D forms with d. Residues, ends and D or L forms follow the SMILES beside them. Hyp = O=C(O)[C@@H]1C[C@@H](O)CN1
# How the values were obtained:
# p53 = conditions: cited from earlier work
# estrogen receptor = target: T1, estrogen receptor (Homo sapiens, UniProt P03372); conditions: cited from earlier work
# T1 sequence (P03372 1-595): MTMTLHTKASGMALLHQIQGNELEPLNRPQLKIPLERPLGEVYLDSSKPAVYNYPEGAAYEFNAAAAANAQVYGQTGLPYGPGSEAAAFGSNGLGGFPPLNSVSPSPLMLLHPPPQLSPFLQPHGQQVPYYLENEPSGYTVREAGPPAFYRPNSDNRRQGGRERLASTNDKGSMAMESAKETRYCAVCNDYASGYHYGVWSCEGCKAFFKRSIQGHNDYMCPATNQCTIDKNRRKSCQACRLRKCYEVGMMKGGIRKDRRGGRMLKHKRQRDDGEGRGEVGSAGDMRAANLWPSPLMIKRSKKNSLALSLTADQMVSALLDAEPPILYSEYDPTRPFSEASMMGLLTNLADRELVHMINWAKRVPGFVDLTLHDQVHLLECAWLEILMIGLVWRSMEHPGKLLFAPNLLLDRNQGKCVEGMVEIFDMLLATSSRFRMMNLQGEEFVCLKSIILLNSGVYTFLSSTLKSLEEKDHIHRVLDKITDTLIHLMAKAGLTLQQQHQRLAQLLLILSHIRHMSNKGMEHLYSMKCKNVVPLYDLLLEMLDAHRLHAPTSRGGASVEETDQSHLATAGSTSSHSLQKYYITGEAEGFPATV
# p21Cip1 = conditions: cited from earlier work
# [1] = tested on: T47D human breast cancer cells; test: T47D cell proliferation assay in the presence of E2; type: cell-based
# Protocol: Anticancer activity of the cyclic peptides was also evaluated using the T47D cell proliferation assay. T47D cells were cultured on collagen-IV coated 24-well plates and treated with each of above peptides in the presence of E2. Final peptide concentrations of each peptide were 10^−6 M and final E2 concentration was 1 nM. Values are reported as mean±SEM (n=6) of four independent experiments. […] One-way ANOVA followed by Tukey's multiple comparison test. p≤0.05.
# (§1) A ‘tail’ was attached to a nine-amino acid ring and included 1 or 2 amino acids defined as hydrophilic or hydrophobic based on the nature of their side-chains. Tails comprising the following amino acid(s): serine (S), tyrosine (Y), […], glutamic acid (E), phenylalanine-serine (FS) and tyrosine-isoleucine (YI) represent hydrophilic tails and tails comprising the following amino acid(s), phenylalanine (F), isoleucine (I) and phenylalanine-isoleucine (FI) are hydrophobic tails. All peptides were administered at a dose of 1 μg/mouse intraperitoneally or 10 μg/mouse by oral gavage. Values are presented as mean±S.E. (n=5). In culture, T47D cells were treated with each peptide at a concentration of 1 μM. Values are presented as mean±S.E (n=6). […] Wilcoxon Rank Sum Test.
# (§2) All peptides were administered at a dose of 1 μg/mouse intraperitoneally or 10 μg/mouse by oral gavage. Values are presented as mean±S.E (n=5). In culture, T47D cells were treated with each peptide at a concentration of 1 μM. Values are presented as mean±S.E (n=6). […] Wilcoxon Rank Sum Test.
# [2] = tested on: T47D human breast cancer cells; test: as above; type: cell-based; conditions: different concentrations in vitro (FIG. 7)
# [3] = tested on: E2-stimulated immature mouse uterine growth; test: immature mouse uterine growth assay (inhibition of E2-stimulated uterine growth); type: in vivo
# Protocol: Four cyclic peptides of decreasing ring size (Table 1) were synthesized and were assessed for antiestrogenic activity using the immature mouse uterine assay. Negative control mice received saline alone. Positive control mice received E2 alone. AFPep was used as a positive control peptide and cyclic Scr was used as a peptide control. Mice were injected intraperitoneally (i.p.) with each of these peptides at a dose of 1 μg/mouse. One hour later mice received 0.5 ug 17β-estradiol (E2) i.p. Twenty-two hours later uteri were dissected, weighed, and normalized to body weight. The results are reported as mean±S.E (n=5) for four independent experiments.
# as §1, §2
# To evaluate peptide-induced inhibition by the peptide of the present invention of estrogen-stimulated proliferation of normal tissue, the immature mouse uterine growth assay was utilized. Briefly, 13-15 day-old Swiss/Webster female mice, 6-8 g in body weight, were distributed into treatment groups of 5 mice per group so that each group contained animals of the same range of body weight. The peptide of the invention was injected i.p., s.c., or p.o. into the mice. One hour later, estradiol (E2) or vehicle control for E2 was injected i.p. Twenty-two hours after the second injection, uteri were harvested, trimmed free of mesenteries, and immediately weighed. The uterine weights were normalized to mouse body weights to compensate for differences in body weight among litters of the same age. Experiments employed a minimum of five mice per group and the mean normalized uterine weight±SE for each group was calculated. Percent growth inhibition in a test group was calculated from normalized uterine wet weights as described below.
# The ability to inhibit E2-stimulated growth of normal mouse uterus was used as a screening assay for biological activity of AFPep analogs. In general, inhibitory activity ≥20% is considered to be biologically significant. Each analog's inhibitory effect on E2-stimulated growth was compared to AFPep (a positive control) and to PGVGQ (SEQ ID NO: 51)(a negative control). PGVGQ (SEQ ID NO: 51 amino acids 478-482 of AFP) is a portion of the primary structure of AFP near to the anti-cancer active site of AFP and is comprised of amino acids (P, V, and G) that are important components of AFPep.
# c-erb2 = conditions: after stimulation by E2 or EGF in MCF-7 cells; cited from earlier work
# [4] = tested on: estrogen receptor phosphorylation at serine-118; conditions: cited from earlier work
structure (smiles),measurement,setting,value
"CC(C)[C@@H]1NC(=O)[C@@H]2C[C@@H](O)CN2C(=O)[C@H]([C@@H](C)O)NC(=O)[C@H](CCCCN)NC(=O)[C@H](CCC(=O)O)NC(=O)[C@H](CC(N)=O)NC(=O)CNC(=O)[C@@H]2C[C@@H](O)CN2C(=O)[C@H](CC(N)=O)NC1=O [AFPep, cyclo[EKTOVNOGN], reference compound] (cyclo(EKT[Hyp]VN[Hyp]GN))",serine-15 phosphorylation on p53,p53,significantly increased
same,binding to the E2-binding site of the estrogen receptor,estrogen receptor,does not bind
same,nuclear p21Cip1 activation,p21Cip1,increases
same,"Inhibition ± S.E, % T47D cell proliferation","[1]; peptide 1 μM, E2-stimulated, mean±S.E (n=6), * p<0.05 vs E2 alone",51 ± 4* %
same,anticancer activity of cyclic analogs of different ring size (T47D proliferation inhibition),"[1]; peptide 10^−6 M, E2 1 nM (FIG. 5B)",significantly different from the other analogs; also recorded: significantly better inhibition of E2-stimulated growth in vivo and in vitro than the other analogs
same,"inhibition of E2-stimulated T47D human breast cancer cell growth, concentration response profile",[2],inhibited E2-stimulated T47D cell growth up to a concentration of 10^−6M and then loss its effectiveness at higher concentrations
same,antiestrogenic activity of cyclic analogs of different ring size (uterine growth inhibition),[3]; 1 μg/mouse i.p. (FIG. 5A),significantly better inhibition of E2-stimulated growth in vivo and in vitro than the other analogs
same,uterine growth inhibition dose response of AFPep combined with antagonist analog,"[3]; combination of AFPep and ring and tail antagonist with disrupted pharmacophore and hydrophilic tail (FIG. 11, 12)",restored by addition of the antagonist analog; also recorded: can be overcome by using a combination of AFPep and an analog with a hydrophilic tail; also recorded: sigmoidal dose range curve
same,"inhibition of E2-stimulated uterine growth, dose response profile",[3]; over a number of doses (FIG. 6),significantly inhibited E2-stimulated uterine growth to a dose of 10 μg and then loses its effectiveness at higher doses
same,transactivation of c-erb2 leading dephosphorylated ERK1/2,c-erb2,prevent the transactivation of c-erb2
same,E2-induced estrogen receptor phosphorylation at serine-118,[4],significantly inhibited
